Measurements taken from ChEMBL document CHEMBL1201862, “PubChem BioAssay data set” (2004).
Active and inactive are the calls of the source.

Tests used:
[1] = molecular target: Induced myeloid leukemia cell differentiation protein Mcl-1 (Homo sapiens, UniProt Q07820); format: functional
SUMO-activating enzyme [2] = molecular target: T1, SUMO-activating enzyme (Homo sapiens, UniProt Q9UBT2); assay: SUMOylation inhibitor hit validation, confirmation, SUMOylation inhibitor project, biochemical, AlphaScreen (AID 2018); format: functional
T1 sequence (Q9UBE0 whole entry): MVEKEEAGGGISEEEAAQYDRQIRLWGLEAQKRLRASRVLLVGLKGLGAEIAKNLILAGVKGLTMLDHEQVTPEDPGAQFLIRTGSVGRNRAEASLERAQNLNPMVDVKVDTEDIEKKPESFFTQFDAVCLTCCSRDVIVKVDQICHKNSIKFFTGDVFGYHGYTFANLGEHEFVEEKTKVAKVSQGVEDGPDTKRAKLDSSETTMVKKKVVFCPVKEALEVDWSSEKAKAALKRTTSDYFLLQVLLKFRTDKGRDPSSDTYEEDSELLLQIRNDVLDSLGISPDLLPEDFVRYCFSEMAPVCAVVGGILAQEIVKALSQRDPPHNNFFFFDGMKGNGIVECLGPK
T1 sequence (Q9UBT2 whole entry): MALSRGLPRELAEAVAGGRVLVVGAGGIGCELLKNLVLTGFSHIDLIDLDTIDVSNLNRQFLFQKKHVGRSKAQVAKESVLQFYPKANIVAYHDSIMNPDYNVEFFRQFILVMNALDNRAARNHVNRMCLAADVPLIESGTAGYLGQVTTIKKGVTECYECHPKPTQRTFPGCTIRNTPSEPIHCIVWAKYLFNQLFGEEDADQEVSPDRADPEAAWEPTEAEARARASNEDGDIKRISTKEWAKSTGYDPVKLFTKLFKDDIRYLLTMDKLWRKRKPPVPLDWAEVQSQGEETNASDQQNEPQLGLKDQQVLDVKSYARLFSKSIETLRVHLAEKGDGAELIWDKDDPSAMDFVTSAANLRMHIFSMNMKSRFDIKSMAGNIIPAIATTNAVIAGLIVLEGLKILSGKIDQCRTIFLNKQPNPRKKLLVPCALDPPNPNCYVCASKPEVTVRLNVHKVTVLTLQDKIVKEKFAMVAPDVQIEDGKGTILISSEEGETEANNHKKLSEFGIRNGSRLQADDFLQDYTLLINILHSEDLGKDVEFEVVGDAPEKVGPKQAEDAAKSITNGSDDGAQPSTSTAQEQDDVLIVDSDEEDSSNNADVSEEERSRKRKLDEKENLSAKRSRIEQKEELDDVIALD

SUMO-activating enzyme [3] = molecular target: T1, SUMO-activating enzyme; assay: inhibitors of in vitro SUMOylation cascade, primary screen, biochemical, HTRF, uHTS (AID 2006); format: protein-complex assay
[4] = molecular target: T2, Heat shock factor protein 1 (Mus musculus, UniProt P38532); assay: HSF1 potentiators in luciferase reporter cells, confirmation, cell-based, NIH3T3, luminescence, dose retest (AID 435004); format: functional;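 also: stress induced by proteasome inhibitor MG132 added 30 min after compound; luciferase reporter driven by HSF1 response element in NIH3T3 cells; actives raise luminescence as potentiators of the MG132 stress response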
T2 sequence (P38532 whole entry): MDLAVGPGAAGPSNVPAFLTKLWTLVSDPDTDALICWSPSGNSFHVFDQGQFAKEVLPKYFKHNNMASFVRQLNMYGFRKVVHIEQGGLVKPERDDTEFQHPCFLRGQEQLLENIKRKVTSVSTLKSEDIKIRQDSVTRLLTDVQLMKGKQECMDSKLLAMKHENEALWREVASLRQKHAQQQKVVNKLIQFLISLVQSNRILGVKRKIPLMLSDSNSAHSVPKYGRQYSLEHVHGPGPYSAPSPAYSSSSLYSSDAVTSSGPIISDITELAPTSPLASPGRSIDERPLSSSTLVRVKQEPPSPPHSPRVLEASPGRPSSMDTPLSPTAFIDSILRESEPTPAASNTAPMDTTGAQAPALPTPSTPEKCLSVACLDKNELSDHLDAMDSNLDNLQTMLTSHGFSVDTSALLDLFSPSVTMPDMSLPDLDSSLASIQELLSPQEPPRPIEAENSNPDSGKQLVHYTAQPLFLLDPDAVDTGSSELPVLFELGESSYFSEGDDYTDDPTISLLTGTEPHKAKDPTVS

[5] = molecular target: Neurotensin receptor type 1 (Homo sapiens, UniProt P30989); format: functional;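 also: Image-based confirmatory dose-response assay measuring agonist activity at NTR1; NTR1-expressing U2OS osteosarcoma cells imaged for beta-arrestin GFP spot formation; agonist potency where compounds increase beta-arrestin recruitment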
Sequence of Neurotensin receptor type 1 (P30989 whole entry): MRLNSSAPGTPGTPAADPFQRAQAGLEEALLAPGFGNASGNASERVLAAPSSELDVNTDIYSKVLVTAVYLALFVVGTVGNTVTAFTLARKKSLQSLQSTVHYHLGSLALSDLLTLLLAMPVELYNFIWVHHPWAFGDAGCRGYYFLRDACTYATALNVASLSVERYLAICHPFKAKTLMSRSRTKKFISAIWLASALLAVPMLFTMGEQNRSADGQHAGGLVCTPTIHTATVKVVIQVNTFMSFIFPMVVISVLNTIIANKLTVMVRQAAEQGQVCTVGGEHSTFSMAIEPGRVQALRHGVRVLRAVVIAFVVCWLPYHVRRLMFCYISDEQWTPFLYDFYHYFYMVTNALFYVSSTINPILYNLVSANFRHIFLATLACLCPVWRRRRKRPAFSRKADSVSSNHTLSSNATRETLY

ORF 73 = ORF 73 (Human herpesvirus 8, UniProt O40947); assay: inhibitors of C-LANA binding to LBS DNA, dose response, biochemical, fluorescence polarization, cherry-picked samples (AID 504725); parameters: species or system Human gammaherpesvirus 8;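 also: fluorescence polarization of a labeled DNA duplex reporting LANA DNA binding; potency is for inhibitors that block LANA binding to the DNA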
[6] = molecular target: T3, Small ubiquitin-related modifier 1 (Homo sapiens, UniProt P63165); assay: inhibitors of SUMO1 partner interactions, dose response, biochemical, FRET (AID 624383); format: functional; conditions: read-out: IC50_Mean
T3 sequence (P63165 whole entry): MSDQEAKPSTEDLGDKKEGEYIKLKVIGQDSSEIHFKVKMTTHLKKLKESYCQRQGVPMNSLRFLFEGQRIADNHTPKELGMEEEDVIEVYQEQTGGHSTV

[7] = molecular target: T4, Rac GTPase-activating protein 1 (Homo sapiens, UniProt Q9H0H5); assay: MgcRacGAP GTPase-activating activity inhibitors, confirmation, biochemical, ADP Hunter fluorescence, primary and confirmatory (AID 624330); format: functional
T4 sequence (Q9H0H5 whole entry): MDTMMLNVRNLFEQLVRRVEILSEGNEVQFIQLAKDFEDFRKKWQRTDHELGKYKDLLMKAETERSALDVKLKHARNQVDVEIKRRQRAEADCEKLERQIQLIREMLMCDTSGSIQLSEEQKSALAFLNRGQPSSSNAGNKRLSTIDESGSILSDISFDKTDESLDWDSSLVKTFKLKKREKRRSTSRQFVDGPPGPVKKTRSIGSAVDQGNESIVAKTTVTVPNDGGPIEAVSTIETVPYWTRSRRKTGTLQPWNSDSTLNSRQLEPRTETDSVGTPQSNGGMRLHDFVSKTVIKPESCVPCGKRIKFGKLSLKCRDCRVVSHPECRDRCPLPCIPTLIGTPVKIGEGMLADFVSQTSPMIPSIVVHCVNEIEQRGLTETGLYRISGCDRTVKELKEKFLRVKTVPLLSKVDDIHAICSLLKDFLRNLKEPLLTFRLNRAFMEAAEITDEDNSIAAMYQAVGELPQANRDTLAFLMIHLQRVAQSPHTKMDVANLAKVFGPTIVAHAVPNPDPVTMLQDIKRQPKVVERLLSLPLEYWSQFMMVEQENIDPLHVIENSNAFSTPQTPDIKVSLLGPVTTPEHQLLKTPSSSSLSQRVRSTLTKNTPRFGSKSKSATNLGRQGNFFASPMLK

Caspase-6 = molecular target: T5, Caspase-6 (Homo sapiens, UniProt P55212); assay: human caspase-6 inhibitors, dose response, biochemical, VEID-R110 fluorescence, cherry-pick (AID 720632)
T5 sequence (P55212 whole entry): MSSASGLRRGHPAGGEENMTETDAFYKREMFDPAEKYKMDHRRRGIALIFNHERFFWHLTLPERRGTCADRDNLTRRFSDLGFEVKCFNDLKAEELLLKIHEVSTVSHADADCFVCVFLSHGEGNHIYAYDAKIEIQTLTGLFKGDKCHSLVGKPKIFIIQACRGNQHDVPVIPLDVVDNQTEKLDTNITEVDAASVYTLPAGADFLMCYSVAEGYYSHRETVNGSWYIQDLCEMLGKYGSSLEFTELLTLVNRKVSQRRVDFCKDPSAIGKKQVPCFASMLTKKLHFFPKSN

Genome polyprotein = Genome polyprotein (dengue virus type 2, UniProt P29990); assay: Dengue-2 NS5 methyltransferase inhibitors, primary screen, biochemical, confirmation dose response (AID 588689); format: functional
Sequence of Genome polyprotein (P29990 2492-3391 limits assumed): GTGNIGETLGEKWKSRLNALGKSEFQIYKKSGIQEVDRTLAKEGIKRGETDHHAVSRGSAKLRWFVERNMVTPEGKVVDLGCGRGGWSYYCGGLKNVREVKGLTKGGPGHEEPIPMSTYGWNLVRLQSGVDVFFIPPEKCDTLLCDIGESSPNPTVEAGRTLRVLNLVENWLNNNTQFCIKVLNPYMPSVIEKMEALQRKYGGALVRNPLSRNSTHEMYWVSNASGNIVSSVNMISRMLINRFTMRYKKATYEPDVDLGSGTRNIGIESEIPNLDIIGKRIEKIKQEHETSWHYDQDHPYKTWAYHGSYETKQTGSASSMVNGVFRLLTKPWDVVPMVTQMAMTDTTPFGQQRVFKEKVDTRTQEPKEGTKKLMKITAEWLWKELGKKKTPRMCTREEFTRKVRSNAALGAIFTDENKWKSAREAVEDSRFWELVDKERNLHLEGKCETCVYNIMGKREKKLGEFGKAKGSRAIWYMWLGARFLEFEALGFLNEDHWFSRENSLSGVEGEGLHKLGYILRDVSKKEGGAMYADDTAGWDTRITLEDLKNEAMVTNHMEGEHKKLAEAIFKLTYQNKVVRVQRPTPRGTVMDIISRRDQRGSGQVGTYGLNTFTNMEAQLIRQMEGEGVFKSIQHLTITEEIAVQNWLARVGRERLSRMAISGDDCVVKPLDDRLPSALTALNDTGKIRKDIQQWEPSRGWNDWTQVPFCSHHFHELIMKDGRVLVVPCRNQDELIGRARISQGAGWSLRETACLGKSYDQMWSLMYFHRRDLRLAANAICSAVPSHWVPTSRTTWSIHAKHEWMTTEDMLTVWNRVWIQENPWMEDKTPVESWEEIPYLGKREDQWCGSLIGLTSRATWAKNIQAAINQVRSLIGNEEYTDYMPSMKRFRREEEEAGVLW

[8] = molecular target: T3, Small ubiquitin-related modifier 1; assay: inhibitors of SUMO1 peptide binding, dose response, biochemical, fluorescence polarization, uHTS hits (AID 624382); format: functional; conditions: read-out: IC50_Mean
[9] = molecular target: Melanin-concentrating hormone receptor 1 (Homo sapiens, UniProt Q99705); assay: Late-stage fluorescence-based counterscreen for antagonists of the G-protein coupled receptor 7 (GPR7): cell-based dose response assay to identify antagonists of the melanin-concentrating hormone receptor 1 (MCHR1). [Related pubchem assays (depositor defined):AID1861, AID1880, AID1952, AID2148, AID2251, AID2257, AID485339]; format: functional;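 also: stimulated with 30 nM MCH peptide agonist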
Sequence of Melanin-concentrating hormone receptor 1 (Q99705 whole entry): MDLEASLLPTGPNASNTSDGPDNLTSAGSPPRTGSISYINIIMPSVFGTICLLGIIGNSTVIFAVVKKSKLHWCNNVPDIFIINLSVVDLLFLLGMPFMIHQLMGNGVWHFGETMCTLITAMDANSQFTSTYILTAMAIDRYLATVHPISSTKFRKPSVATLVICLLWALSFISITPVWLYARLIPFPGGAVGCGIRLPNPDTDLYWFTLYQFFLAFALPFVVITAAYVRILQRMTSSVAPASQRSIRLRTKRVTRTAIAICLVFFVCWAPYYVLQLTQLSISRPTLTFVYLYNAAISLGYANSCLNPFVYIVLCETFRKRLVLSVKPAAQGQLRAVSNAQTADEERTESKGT

[10] = molecular target: T6, Neuropeptides B/W receptor type 1 (Homo sapiens, UniProt P48145); assay: GPR7 antagonist potency, late-stage follow-up, cell-based, fluorescence, dose response (AID 463251); format: functional
T6 sequence (P48145 whole entry): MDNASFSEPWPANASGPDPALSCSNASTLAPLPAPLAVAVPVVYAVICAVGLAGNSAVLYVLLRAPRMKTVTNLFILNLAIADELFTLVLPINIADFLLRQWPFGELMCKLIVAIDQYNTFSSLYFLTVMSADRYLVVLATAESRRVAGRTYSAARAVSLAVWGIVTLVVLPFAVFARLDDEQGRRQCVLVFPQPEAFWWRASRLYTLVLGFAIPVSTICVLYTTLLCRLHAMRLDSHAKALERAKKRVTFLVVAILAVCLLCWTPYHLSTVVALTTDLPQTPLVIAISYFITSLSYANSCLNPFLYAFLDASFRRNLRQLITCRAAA

[11] = molecular target: Intestinal-type alkaline phosphatase (Homo sapiens, UniProt P09923); assay: Dose Response confirmation of uHTS hits from a small molecule inhibitors of human intestinal alkaline phosphatase via a luminescent assay. [Related pubchem assays (depositor defined):AID2544, AID2574]; format: functional
Sequence of Intestinal-type alkaline phosphatase (P09923 whole entry): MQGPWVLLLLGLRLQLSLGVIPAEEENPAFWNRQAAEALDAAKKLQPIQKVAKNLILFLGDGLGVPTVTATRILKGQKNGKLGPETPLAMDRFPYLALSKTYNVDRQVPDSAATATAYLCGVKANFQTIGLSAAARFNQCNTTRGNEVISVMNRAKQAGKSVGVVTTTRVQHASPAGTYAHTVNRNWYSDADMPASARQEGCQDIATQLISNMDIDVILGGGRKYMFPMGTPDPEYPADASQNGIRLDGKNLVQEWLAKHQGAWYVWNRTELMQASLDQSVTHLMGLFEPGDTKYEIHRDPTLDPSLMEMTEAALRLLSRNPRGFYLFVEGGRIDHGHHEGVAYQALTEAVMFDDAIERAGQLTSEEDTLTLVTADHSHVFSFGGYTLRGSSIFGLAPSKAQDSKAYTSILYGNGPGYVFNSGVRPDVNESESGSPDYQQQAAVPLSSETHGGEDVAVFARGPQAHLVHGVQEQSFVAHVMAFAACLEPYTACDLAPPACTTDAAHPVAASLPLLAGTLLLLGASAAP

Aspartyl aminopeptidase = Aspartyl aminopeptidase (Plasmodium falciparum 3D7, UniProt Q8I2J3)
Sequence of Aspartyl aminopeptidase (Q8I2J3 whole entry): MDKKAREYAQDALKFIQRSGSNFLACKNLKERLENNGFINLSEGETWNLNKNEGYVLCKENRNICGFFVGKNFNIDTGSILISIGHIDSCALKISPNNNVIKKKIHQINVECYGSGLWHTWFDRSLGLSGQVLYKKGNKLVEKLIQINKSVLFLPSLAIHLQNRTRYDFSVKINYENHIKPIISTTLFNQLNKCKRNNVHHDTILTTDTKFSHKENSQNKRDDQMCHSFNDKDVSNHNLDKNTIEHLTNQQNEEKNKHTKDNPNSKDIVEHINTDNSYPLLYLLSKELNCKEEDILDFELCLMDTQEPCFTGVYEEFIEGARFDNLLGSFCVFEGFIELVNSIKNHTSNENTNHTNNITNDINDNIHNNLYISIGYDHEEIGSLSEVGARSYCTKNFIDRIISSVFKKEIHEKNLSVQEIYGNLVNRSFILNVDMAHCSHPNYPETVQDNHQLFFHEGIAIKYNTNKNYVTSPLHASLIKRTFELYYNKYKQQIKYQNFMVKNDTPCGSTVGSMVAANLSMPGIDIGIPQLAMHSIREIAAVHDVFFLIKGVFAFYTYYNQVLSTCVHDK

Procathepsin L = Procathepsin L (Homo sapiens, UniProt P07711)
Sequence of Procathepsin L (P07711 whole entry): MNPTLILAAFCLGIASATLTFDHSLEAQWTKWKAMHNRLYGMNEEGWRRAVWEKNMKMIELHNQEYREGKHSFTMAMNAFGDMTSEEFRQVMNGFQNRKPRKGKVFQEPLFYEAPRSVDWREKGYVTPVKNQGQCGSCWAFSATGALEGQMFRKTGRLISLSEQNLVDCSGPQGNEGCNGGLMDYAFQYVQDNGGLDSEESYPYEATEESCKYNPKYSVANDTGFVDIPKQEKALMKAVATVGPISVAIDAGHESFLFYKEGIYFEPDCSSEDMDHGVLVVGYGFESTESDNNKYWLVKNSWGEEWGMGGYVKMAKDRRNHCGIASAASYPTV

[12] = THP-1 cell cytotoxicity, dose response, cytotoxicity control for non-replicating M. tuberculosis project (AID 489025); format: functional
[13] = HepG2 cell cytotoxicity, dose response, cytotoxicity control for non-replicating M. tuberculosis project (AID 489018); format: functional; conditions: Mycobacterium tuberculosis
cells = format: functional
[14] = Luminescence Cell-Based Dose Retest to Confirm Inhibitors of Cancer Stem Cells. [Related pubchem assays (depositor defined):AID2717, AID2721]; format: functional; conditions: Homo sapiens
[15] = Vero E6 cell cytotoxicity, dose response, cytotoxicity control for non-replicating M. tuberculosis project, secondary assay (AID 492998); format: functional, VeroE6; conditions: Vero C1008

Sequence of Induced myeloid leukemia cell differentiation protein Mcl-1 (Q07820 whole entry): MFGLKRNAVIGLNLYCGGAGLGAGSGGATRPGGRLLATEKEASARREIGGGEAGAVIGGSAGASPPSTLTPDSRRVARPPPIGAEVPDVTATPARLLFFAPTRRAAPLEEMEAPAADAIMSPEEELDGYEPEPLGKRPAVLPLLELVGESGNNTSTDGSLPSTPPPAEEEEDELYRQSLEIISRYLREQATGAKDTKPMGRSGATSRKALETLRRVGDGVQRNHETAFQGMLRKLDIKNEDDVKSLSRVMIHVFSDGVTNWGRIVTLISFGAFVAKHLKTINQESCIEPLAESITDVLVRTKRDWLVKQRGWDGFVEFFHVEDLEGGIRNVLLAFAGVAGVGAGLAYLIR

## NC(=S)n1nc(-c2ccc([N+](=O)[O-])cc2)c(/N=N/c2cccc(Cl)c2)c1O
[1]
  IC50: 1.44 µM (active)
SUMO-activating enzyme [2]
  IC50: 3.29 µM (active)
SUMO-activating enzyme [3]
  IC50: 51.5 µM (active)

## CCOc1cc(/C=C2/C(=O)ON=C2C)ccc1OCc1ccc(F)cc1
[4]
  EC50: 8.12 µM (active)
[5]
  EC50: 16.2 µM (active)

## CC(=O)Nc1ccc(S(=O)(=O)Nc2nc3ccccc3nc2Nc2ccc(C(=O)O)c(O)c2)cc1
ORF 73
  AC50: 42.3 µM (active)
[6]
  IC50: 88.1 µM (inactive)
[7]
  IC50: 166 µM (active)
Caspase-6
  AC50: 13.2 µM (active)
Genome polyprotein
  IC50: > 100 µM (active)
[8]
  IC50: > 66.6 µM (inactive)

## O=C(C1CCCCN1Cc1ccc(Cl)cc1)N1CCN(c2ccc([N+](=O)[O-])cc2)CC1 (centres undefined)
[9]
  IC50: 1.8 µM (active)
[10]
  IC50: 1.6 µM (active)

## CCn1c2ccccc2c2cc(NC(=O)c3coc(=O)c(Br)c3)ccc21
[11]
  IC50: 55.6 µM (inactive)

## CCc1ccccc1N=C(S)Nn1cnnc1
Aspartyl aminopeptidase
  IC50: 3.03 µM (active)
Procathepsin L
  IC50: > 59.6 µM (not active)

## CCOC(=O)c1ccc(NC(=O)Nn2cnnc2)cc1
Aspartyl aminopeptidase
  IC50: 2.09 µM (active)
Procathepsin L
  IC50: > 59.6 µM (not active)

## Cc1ccc2c(c1)c1c(n2CC(O)CNC2CCCCC2)CCCC1 (centres undefined)
[12]
  CC50: 12.1 µM (active)
[13]
  CC50: 11.9 µM (active)
cells
  IC50: 33.4 µM (active)
[14]
  AC50: 9.21 µM (active)
[5]
  EC50: 17 µM (active)
[15]
  CC50: > 20 µM (active)
